Source: patent EP0179667B1, “N6-substituted adenosines” (priority 1984, dated 1986)

Key:
Swiss-Webster male mice [1] = assay: Mouse Activity and Screen Test Procedure (MAST): screen test (ST); type: in vivo; conditions: one hour postinjection
Text: The compounds of the invention are new chemical substances which are useful as pharmaceutical agents for the treatment of psychoses. The antipsychotic activity of representative compounds of the invention was established by the Mouse Activity and Screen Test Procedrue (MAST) described below.
Nine unfasted Swiss-Webster male mice weighing 20-30 g equally divided into three groups for each drug dose to be tested. That is, data for each dose level was generated by three separated groups of three mice each.
A minimum of three dose levels (10, 30, and 100 mg/kg) are tested for each drug. Treatments are administered intraperitoneally one hour prior to testing. All dosages are calculated as parent compound and given in volumes of 10 ml/kg. Compounds are dissolved or suspended in 0.2% Methocel. Control animals are injected with Methocel.
Testing: A two part testing procedure is started one hour postinjection. First, the screen test (ST) is performed (see Pharmac. Biochem. Behav. 6, 351-353, 1977). Briefly this test consists of placing mice on individual wire screens which are then rotated 180 degrees at the start of a 60 second observation period. The number of mice falling off the inverted screen is recorded.
Data: The data obtained from the screen test are expressed as percent of mice falling off the screen. Data derived from locomotor activity of drug treated mice are compared to the activity of vehicle treated animals and are expressed as percent inhibition of spontaneous locomotion. All percentages reported for inhibition of locomotion (LI) are based upon data accumulated for one hour. Both phases of testing are graded: A=60-100%; G=31-59%; and N=0-30%. An overall dose rating is obtained by the following criteria:
LAD refers to the lowest dose at which an A rating is achieved. […] Utilizing this procedure, an overall dose rating of A was obtained for the noted compound at the indicated dose. The compounds are identified in the Examples.

Swiss-Webster male mice [2] = assay: Mouse Activity and Screen Test Procedure (MAST): locomotor activity in actophotometer; type: in vivo; conditions: one hour prior to testing
Experimental: Nine unfasted Swiss-Webster male mice weighing 20-30 g equally divided into three groups for each drug dose to be tested. That is, data for each dose level was generated by three separated groups of three mice each. A minimum of three dose levels (10, 30, and 100 mg/kg) are tested for each drug. Treatments are administered intraperitoneally one hour prior to testing. All dosages are calculated as parent compound and given in volumes of 10 ml/kg. […] Control animals are injected with Methocel. […] The actophotometer consists of a cylindrical chamber whose center is occupied by another cylinder which contains the illumination for six photocells located on the perimeter of the chamber. Six light-beam interruptions equal one count. […] Data: The data obtained from the screen test are expressed as percent of mice falling off the screen. Data derived from locomotor activity of drug treated mice are compared to the activity of vehicle treated animals and are expressed as percent inhibition of spontaneous locomotion. All percentages reported for inhibition of locomotion (LI) are based upon data accumulated for one hour. […] An overall dose rating is obtained by the following criteria: LAD refers to the lowest dose at which an A rating is achieved. […] The compounds are identified in the Examples.

adenosine A1 receptor = target: T1, adenosine A1 receptor (Rattus norvegicus, UniProt P25099); assay: Adenosine Receptor Binding - A1 Receptor Affinity (RBA1); conditions: [3H]-CHA, rat whole brain membranes; read-out: RBA-1
T1 construct: Whole brain minus cerebellum and brainstem from male Long Evans rats (150-200 g) was homogenized; from tissue; host or cells: rat whole brain minus cerebellum and brainstem, membrane homogenate
T1 sequence (P25099 1-326): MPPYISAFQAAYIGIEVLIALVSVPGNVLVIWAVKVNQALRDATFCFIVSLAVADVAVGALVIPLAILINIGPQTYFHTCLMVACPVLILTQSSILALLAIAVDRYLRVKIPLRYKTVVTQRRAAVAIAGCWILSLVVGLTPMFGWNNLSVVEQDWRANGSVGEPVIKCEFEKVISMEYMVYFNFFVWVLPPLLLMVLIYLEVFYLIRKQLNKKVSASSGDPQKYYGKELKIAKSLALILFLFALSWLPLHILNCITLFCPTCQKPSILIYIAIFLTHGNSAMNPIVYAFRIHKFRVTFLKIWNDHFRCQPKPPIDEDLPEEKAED
Experimental: Adenosine Receptor Binding - A1 Receptor Affinity (RBA1)
Whole brain minus cerebellum and brainstem from male Long Evans rats (150-200 g) was homogenized in 30 volumes of ice-cold 0.05 M Tris-HCI buffer pH 7.7 using a Brinkman Polytron PT-10 (setting number 6 for 20 seconds) and centrifuged for ten minutes at 20,000 x g (Sorvall RC-2), 4°C. The supernatant was discarded, and the pellet was resuspended and centrifuged as before. The pellet was resuspended in 20 ml Tris-HCI buffer containing two International Units/ml of adenosine deaminase (Sigma type III from calf intestinal mucosa), incubated at 37°C for 30 minutes, then subsequently at 0°C for ten minutes. The homogenate was again centrifuged, and the final pellet was resuspended in ice-cold 0.05 M Tris-HCI buffer pH 7.7 to a concentration of 20 mg/ml original wet tissue weight and used immediately.
Tissue homogenate (10 mg/ml) was incubated in 0.05 M Tris-HCI buffer pH 7.7 containing 1.0 nM [^3H]-N^6-cyclohexyladenosine (^3H]-CHA) with or without test agents in triplicate for one hour at 25°C. Incubation volume was 2 ml. Unbound [^3H]-CHA was separated by rapid filtration under reduced pressure through Whatman glass fiber (GF/B) filters. The filters were rinsed three times with 5 ml of ice cold 0.05 M Tris-HCI buffer pH 7.7. The radio-labeled ligand retained on the filter was measured by liquid scintillation spectrophotometry after shaking the filters for one hour or longer on a mechanical shaker in 10 ml of Beckman Ready Solv HP scintillation cocktail.
Nonspecific binding was defined as the binding which occurred in the presence of 1 mM thophylline. […] The Scatchard plot was calculated by linear regression of the line obtained by plotting the amount of radioligand bound (pmoles/gram of tissue) versus [formula] Since the amount of radioligand bound was a small fraction of the total amount added, free radioligand was defined as the concentration (nM) of radioligand added to the incubation mixture. The Hill coefficient was calculated by linear regression of the line obtained by plotting the log of the bound radioligand vs the log of the [formula] The maximal number of binding sites (Bmax) was calculated from the Scatchard plot.

SMILES | Screen test failure (Swiss-Webster male mice [1]; 1 mg/kg intraperitoneally) [%] | Screen test failure (Swiss-Webster male mice [1]; 3 mg/kg intraperitoneally) [%] | Screen test failure (Swiss-Webster male mice [1]; 10 mg/kg intraperitoneally) [%] | IC50 (adenosine A1 receptor) [nM] | Screen test failure (Swiss-Webster male mice [1]; 0.3 mg/kg intraperitoneally) [%] | Screen test failure (Swiss-Webster male mice [1]; 30 mg/kg intraperitoneally) [%] | Screen test failure (Swiss-Webster male mice [1]; 100 mg/kg intraperitoneally) [%] | Screen test failure (Swiss-Webster male mice [1]; 0.1 mg/kg intraperitoneally) [%] | Screen test failure (Swiss-Webster male mice [1]; 9.0 mg/kg intraperitoneally) [%] | Screen test failure (Swiss-Webster male mice [1]; 0.03 mg/kg intraperitoneally) [%] | Inhibition of mouse locomotor activity (Swiss-Webster male mice [2]; 1 mg/kg intraperitoneally) [%] | Inhibition of mouse locomotor activity (Swiss-Webster male mice [2]; 3 mg/kg intraperitoneally) [%] | Inhibition of mouse locomotor activity (Swiss-Webster male mice [2]; 10 mg/kg intraperitoneally) [%] | Inhibition of mouse locomotor activity (Swiss-Webster male mice [2]; 0.3 mg/kg intraperitoneally) [%] | Inhibition of mouse locomotor activity (Swiss-Webster male mice [2]; 30 mg/kg intraperitoneally) [%] | Inhibition of mouse locomotor activity (Swiss-Webster male mice [2]; 100 mg/kg intraperitoneally) [%] | Inhibition of mouse locomotor activity (Swiss-Webster male mice [2]; 0.1 mg/kg intraperitoneally) [%] | Inhibition of mouse locomotor activity (Swiss-Webster male mice [2]; 9.0 mg/kg intraperitoneally) [%] | Inhibition of mouse locomotor activity (Swiss-Webster male mice [2]; 0.03 mg/kg intraperitoneally) [%]
OC[C@H]1O[C@@H](n2cnc3c(NC4CCCc5ccccc54)ncnc32)C(O)[C@@H]1O (stereo in doubt) [Example 1, (R,S)-N^6-[1-Tetralinyl]-adenosine] | 0 | 0 | 22 | 59 |  | 22 | 99 |  |  |  | 86 | 93 | 98 |  | 97 | 99 |  |  | 
OC[C@H]1O[C@@H](n2cnc3c(NC4CCCc5ccccc54)ncnc32)[C@H](O)[C@@H]1O (stereo partly drawn) [Example 2, (R)-N^6-[1-Tetralinyl]-adenosine] | 11 | 22 |  | 44 | 0 | 66 |  | 0 | 33 |  | 79 | 95 |  | 45 | 99 |  | 25 | 97 | 
OC[C@H]1O[C@H](n2cnc3c(NC4CCCc5ccccc54)ncnc32)[C@H](O)[C@@H]1O (stereo partly drawn) [Example 3, (S)-N^6-[1-Tetralinyl]-adenosine] | 22 | 0 | 0 | 403 | 0 | 11 |  | 11 |  |  | 30 | 69 | 95 | 34 | 96 |  | 40 |  | 
COc1ccc2c(c1)CCCC2Nc1ncnc2c1ncn2[C@@H]1O[C@H](CO)[C@@H](O)[C@H]1O (stereo partly drawn) [Example 6, N^6-[1-(6-Methoxy)-tetralinyl]-adenosine] | 0 | 0 | 0 | 126 |  | 44 | 44 |  |  |  | 22 | 3 | 62 |  | 94 | 99 |  |  | 
COc1ccc2c(c1)C(Nc1ncnc3c1ncn3[C@H]1O[C@H](CO)[C@@H](O)[C@H]1O)CCC2 (stereo partly drawn) [Example 9, (S)-N^6-(7-methoxy-1-tetralinyl)-adenosine] |  | 11 | 0 | 4550 |  | 11 |  |  |  |  |  | −35 | −11 |  | −3 |  |  |  | 

Compounds with a lower IC50 (adenosine A1 receptor), results first:

Screen test failure (Swiss-Webster male mice [1]; 1 mg/kg intraperitoneally) [%] | Screen test failure (Swiss-Webster male mice [1]; 3 mg/kg intraperitoneally) [%] | Screen test failure (Swiss-Webster male mice [1]; 10 mg/kg intraperitoneally) [%] | IC50 (adenosine A1 receptor) [nM] | Screen test failure (Swiss-Webster male mice [1]; 0.3 mg/kg intraperitoneally) [%] | Screen test failure (Swiss-Webster male mice [1]; 30 mg/kg intraperitoneally) [%] | Screen test failure (Swiss-Webster male mice [1]; 100 mg/kg intraperitoneally) [%] | Screen test failure (Swiss-Webster male mice [1]; 0.1 mg/kg intraperitoneally) [%] | Screen test failure (Swiss-Webster male mice [1]; 9.0 mg/kg intraperitoneally) [%] | Screen test failure (Swiss-Webster male mice [1]; 0.03 mg/kg intraperitoneally) [%] | SMILES | Inhibition of mouse locomotor activity (Swiss-Webster male mice [2]; 1 mg/kg intraperitoneally) [%] | Inhibition of mouse locomotor activity (Swiss-Webster male mice [2]; 3 mg/kg intraperitoneally) [%] | Inhibition of mouse locomotor activity (Swiss-Webster male mice [2]; 10 mg/kg intraperitoneally) [%] | Inhibition of mouse locomotor activity (Swiss-Webster male mice [2]; 0.3 mg/kg intraperitoneally) [%] | Inhibition of mouse locomotor activity (Swiss-Webster male mice [2]; 30 mg/kg intraperitoneally) [%] | Inhibition of mouse locomotor activity (Swiss-Webster male mice [2]; 100 mg/kg intraperitoneally) [%] | Inhibition of mouse locomotor activity (Swiss-Webster male mice [2]; 0.1 mg/kg intraperitoneally) [%] | Inhibition of mouse locomotor activity (Swiss-Webster male mice [2]; 9.0 mg/kg intraperitoneally) [%] | Inhibition of mouse locomotor activity (Swiss-Webster male mice [2]; 0.03 mg/kg intraperitoneally) [%]
0 | 11 | 22 | 42 | 0 | 66 |  |  |  |  | COc1cccc2c1CCCC2Nc1ncnc2c1ncn2[C@@H]1O[C@H](CO)[C@@H](O)[C@H]1O (stereo partly drawn) [Example 7, N^6-[5-Methoxy-1-aminotetralin]-adenosine] | 22 | 91 | 97 | 7 | 99 |  |  |  | 
0 | 11 | 11 | 40 |  |  |  |  |  |  | COc1ccc2c(c1)C(Nc1ncnc3c1ncn3[C@@H]1O[C@H](CO)[C@@H](O)[C@H]1O)CCC2 (single isomer, unassigned) [Example 5, N6-[1-(7-Methoxy)-tetralinyl]-adenosine] | 39 | 82 | 91 |  |  |  |  |  | 
11 | 11 | 22 | 21 | 11 | 65 |  |  |  |  | COc1ccc2c(c1)C(Nc1ncnc3c1ncn3[C@@H]1O[C@H](CO)[C@@H](O)[C@H]1O)CCC2 (single isomer, unassigned) [Example 8] | 83 | 88 | 93 | 25 | 94 |  |  |  | 
 |  | 77 | 19 | 11 | 88 | 77 | 0 |  | 0 | CC1CCc2ccccc2C1Nc1ncnc2c1ncn2[C@@H]1O[C@H](CO)[C@@H](O)[C@H]1O (stereo partly drawn) [Example 4, N^6-[1-(2-Methyl)-tetralinyl]-adenosine] |  |  | 97 | 70 | 99 | 99 | 1 |  | 3
22 | 22 | 44 | 19 | 11 | 66 |  |  |  |  | COc1cccc2c1CCC[C@@H]2Nc1ncnc2c1ncn2[C@@H]1O[C@H](CO)[C@@H](O)[C@H]1O [Example 10, (S)-N^6-[5-methoxy-1-aminotetralin]-adenosine] | 65 | 88 | 95 | −19 | 97 |  |  |  | 
